Reference: patent publication US20180200257A1, “METHODS FOR THE TREATMENT OF INFLAMMATORY DISORDERS” (Galapagos NV, priority 2015, published 2018)

System: subjects with moderately to severely active RA who have an inadequate response to methotrexate (MTX)
Assay: Study 2 (monotherapy) - Alanine Aminotransferase (ALT) levels
Type: in vivo, human
Excerpt: Randomized, double-blind, placebo-controlled, multicenter, phase IIb dose finding study of Compound 1 (dosed as a [Compound 1:HCl:3H2O]) administered for 24 weeks as monotherapy to subjects with moderately to severely active rheumatoid arthritis who have an inadequate response to methotrexate alone
Double-blind, placebo-controlled, monotherapy study in subjects with moderately to severely active RA who have an inadequate response to methotrexate (MTX) (oral or parenteral).
280 subjects randomized to one of 3 doses of Compound 1 (dosed as a [Compound 1:HCl:3H2O]) or to placebo, given once daily (q.d.).
Twelve weeks of treatment with Compound 1 (dosed as a [Compound 1:HCl:3H2O]) at 50 mg, 100 mg, or 200 mg q.d.; or placebo. At Week 12, all subjects on placebo and the subjects on the 50 mg dose who have not achieved 20% improvement in swollen joint count (SJC66) and tender joint count (TJC68) will be assigned to 100 mg q.d. in a blinded fashion and will continue treatment until Week 24. Subjects in the other groups will maintain their randomized treatment until Week 24.
ALT levels determination is available at Quest Diagnostics, Clinical Trials, Quest House, 125-135 Staines Road, Hounslow, Middlesex, TW3 3JB, United Kingdom under Catalogue n#84460.
ALT catalyzes the exchange of the amino group of alanine with the oxogroup of 2-ketoglutarate to form pyruvate and glutamate. In the presence of lactic dehydrogenase, pyruvate reacts with NADH to form NAD+, measured spectrophotometrically. Guidelines for the ALT value have been issued by the association for Clinical Biochemistry and Laboratory Medicine, 130-132 Tooley Street LONDON SE1 2TU, united Kingdom, wherein the ALT value should be below 34 U/l in Female and below 52 U/L in male.
Subjects in the other groups maintained their randomized treatment until Week 24.

[1] = 12 weeks results, 50 mg q.d., week 1
[2] = 12 weeks results, 50 mg q.d., week 2
[3] = 12 weeks results, 50 mg q.d., week 4
[4] = 12 weeks results, 50 mg q.d., week 8
[5] = 12 weeks results, 50 mg q.d., week 12
[6] = 12 weeks results, 100 mg q.d., week 1
[7] = 12 weeks results, 100 mg q.d., week 2
[8] = 12 weeks results, 100 mg q.d., week 4
[9] = 12 weeks results, 100 mg q.d., week 8
[10] = 12 weeks results, 100 mg q.d., week 12
[11] = 12 weeks results, 200 mg q.d., week 1
[12] = 12 weeks results, 200 mg q.d., week 2
[13] = 12 weeks results, 200 mg q.d., week 4
[14] = 12 weeks results, 200 mg q.d., week 8
[15] = 12 weeks results, 200 mg q.d., week 12
[16] = 24 weeks results, 50 mg q.d. non responders switching to 100 mg q.d. at week 12, week 1
[17] = 24 weeks results, 50 mg q.d. non responders switching to 100 mg q.d. at week 12, week 2
[18] = 24 weeks results, 50 mg q.d. non responders switching to 100 mg q.d. at week 12, week 4
[19] = 24 weeks results, 50 mg q.d. non responders switching to 100 mg q.d. at week 12, week 8
[20] = 24 weeks results, 50 mg q.d. non responders switching to 100 mg q.d. at week 12, week 12
[21] = 24 weeks results, 50 mg q.d. non responders switching to 100 mg q.d. at week 12, week 16
[22] = 24 weeks results, 50 mg q.d. non responders switching to 100 mg q.d. at week 12, week 20
[23] = 24 weeks results, 50 mg q.d. non responders switching to 100 mg q.d. at week 12, week 24
[24] = 24 weeks results, 50 mg q.d. responders, week 1
[25] = 24 weeks results, 50 mg q.d. responders, week 2

O=C(Nc1nc2cccc(-c3ccc(CN4CCS(=O)(=O)CC4)cc3)n2n1)C1CC1 [Compound 1, cyclopropanecarboxylic acid {5-[4-(1,1-dioxo-thiomorpholin-4-ylmethyl)-phenyl]-[1,2,4]triazolo[1,5-a]pyridin-2-yl}-amide]
Study 2 - ALT Mean CFB [1]: −1.4 IU/L
Study 2 - ALT Mean percentage CFB [1]: −1.29%
Study 2 - ALT Mean CFB [2]: −2.6 IU/L
Study 2 - ALT Mean percentage CFB [2]: −3.25%
Study 2 - ALT Mean CFB [3]: −2.2 IU/L
Study 2 - ALT Mean percentage CFB [3]: −3.73%
Study 2 - ALT Mean CFB [4]: −3.0 IU/L
Study 2 - ALT Mean percentage CFB [4]: −0.73%
Study 2 - ALT Mean CFB [5]: −1.4 IU/L
Study 2 - ALT Mean percentage CFB [5]: 1.77%
Study 2 - ALT Mean CFB [6]: 0.4 IU/L
Study 2 - ALT Mean percentage CFB [6]: 13.98%
Study 2 - ALT Mean CFB [7]: 0.7 IU/L
Study 2 - ALT Mean percentage CFB [7]: 13.25%
Study 2 - ALT Mean CFB [8]: 0.3 IU/L
Study 2 - ALT Mean percentage CFB [8]: 17.82%
Study 2 - ALT Mean CFB [9]: −0.5 IU/L
Study 2 - ALT Mean percentage CFB [9]: 7.83%
Study 2 - ALT Mean CFB [10]: 1.3 IU/L
Study 2 - ALT Mean percentage CFB [10]: 14.61%
Study 2 - ALT Mean CFB [11]: −1.8 IU/L
Study 2 - ALT Mean percentage CFB [11]: −0.92%
Study 2 - ALT Mean CFB [12]: −1.1 IU/L
Study 2 - ALT Mean percentage CFB [12]: 1.07%
Study 2 - ALT Mean CFB [13]: −1.4 IU/L
Study 2 - ALT Mean percentage CFB [13]: 4.71%
Study 2 - ALT Mean CFB [14]: −0.8 IU/L
Study 2 - ALT Mean percentage CFB [14]: 8.41%
Study 2 - ALT Mean CFB [15]: −1.1 IU/L
Study 2 - ALT Mean percentage CFB [15]: 5.69%
Study 2 - ALT Mean CFB [16]: −0.1 IU/L
Study 2 - ALT Mean percentage CFB [16]: 0.97%
Study 2 - ALT Mean CFB [17]: −0.2 IU/L
Study 2 - ALT Mean percentage CFB [17]: −0.54%
Study 2 - ALT Mean CFB [18]: 0.6 IU/L
Study 2 - ALT Mean percentage CFB [18]: 4.48%
Study 2 - ALT Mean CFB [19]: −1.3 IU/L
Study 2 - ALT Mean percentage CFB [19]: −4.46%
Study 2 - ALT Mean CFB [20]: −0.9 IU/L
Study 2 - ALT Mean percentage CFB [20]: −1.26%
Study 2 - ALT Mean CFB [21]: 0.9 IU/L
Study 2 - ALT Mean percentage CFB [21]: 6.27%
Study 2 - ALT Mean CFB [22]: 0.3 IU/L
Study 2 - ALT Mean percentage CFB [22]: 4.86%
Study 2 - ALT Mean CFB [23]: 3.2 IU/L
Study 2 - ALT Mean percentage CFB [23]: 22.47%
Study 2 - ALT Mean CFB [24]: −1.7 IU/L
Study 2 - ALT Mean percentage CFB [24]: −1.89%
Study 2 - ALT Mean CFB [25]: −3.3 IU/L
Study 2 - ALT Mean percentage CFB [25]: −3.98%
